{
  "source": "patent US20150104399A1",
  "about": "“PREVENTION OF FIBROBLAST COLLAPSE” (Biocogent, LLC, priority 2012, published 2015)",
  "key": {"skin fibroblasts [1]": {"system": "skin fibroblasts", "assay": "Viability of fibroblasts exposed to BSA reacted with ribose, resazurin dye", "assay_type": "cell-based", "settings": "positive control for preventing glycation; human dermal fibroblasts exposed to glycated protein", "protocol": "In some examples discussed herein, comparison was made between the skin care compositions of the present technology and those containing pyridoxamine as a positive control. It was shown that a population of human dermal fibroblasts (HDFs) exposed to glycated proteins is generally expected to collapse. Specifically, glycated protein (such as bovine serum albumin, BSA), when added to normally cultured skin fibroblasts at a concentration in the range of 2 to 6 mg/mL, caused cell death within approximately 18 to 36 hours. […] A series of tests was conducted to evaluate the skin care compositions of the present technology, to see whether they could prevent the target protein of BSA from being toxic to skin fibroblasts. This was done by first reacting BSA with the sugar (ribose) in a buffered saline solution. Some of the reaction mixtures also contained pyridoxamine (a drug used here as the positive control known to prevent glycation) or the skin care compositions of the present technology. […] After exposure of the cells to these solutions at 37° C. for 24 hours, the viability of the cells was determined by adding a dye (resazurin) to the wells and incubating at 37° C. for another hour. […] The color change in the wells was then measured as optical density on a plate-reading spectrophotometer. […]"}, "skin fibroblasts [2]": {"system": "skin fibroblasts", "assay": "Viability and attachment of confluent fibroblasts exposed to BSA reacted with ribose, neutral red dye, microscopy", "assay_type": "cell-based, human", "settings": "BSA reacted with 100 millimolar ribose in presence of 10 millimolar pyridoxamine; 2 mg/mL BSA, 16 hours; FIG. 6", "protocol": "A further series of tests was conducted to evaluate the skin care compositions of the present technology, to see whether they could prevent the target protein of BSA from being toxic to skin fibroblasts. This was done by first reacting BSA with the glycating sugar (ribose) in a buffered saline solution. Some of the reaction mixtures also contained pyridoxamine (a drug used here as the positive control known to prevent glycation) or the skin care compositions of the present technology. For this test, incubation of the sterile reaction mixtures was for two days at a temperature of about 45° C. After that, the reaction mixtures were extensively dialyzed against deionized water, removing all of the small molecules (ribose, salts, etc.) from the mixtures, leaving just the BSA. The resulting BSA solutions were then lyophilized (freeze-dried) to remove water, and the residues of BSA were resolubilized in a buffered saline solution. After measuring the protein concentration of each of these solutions, they were each added to a cell culture dish containing confluent fibroblasts to achieve a final BSA concentration of 2 milligrams per milliliter. After exposure of the cells to these solutions at 37° C. for 16 hours, the viability of the cells was determined by adding a dye (neutral red) to the plates and incubating at 37° C. for another hour. […]"}},
  "data": [
    {"compound": "Cc1ncc(CO)c(CN)c1O", "note": "[pyridoxamine]", "values": [
      {"measurement": "effect on fibroblast collapse", "setting": "skin fibroblasts [1]", "value": "mitigated some of the collapse"},
      {"measurement": "health of fibroblasts (neutral red uptake, attachment)", "setting": "skin fibroblasts [2]", "value": "have remained healthy"}
    ]}
  ]
}
